Seven molecules from patent EP0086647A2, “Pyrimidone compounds, their preparation, and pharmaceutical compositions containing them” (YAMANOUCHI PHARMACEUTICAL CO. LTD., priority 1982, dated 1983) can be followed below.

Structures can show the parent of a compound that is named as a salt.

One test has as its system gastric acid secretion. In words: Acid inhibition, Shay (4hr.) / (Dog), results table. Format: in vivo.
Test [1] is described as follows: Cytoprotective action (animal experiment methods, not described). Format: in vivo. On the set-up: key: *: These compounds also have cytoprotective action.

With `CCN(CC)CCCc1c(C)[nH]c(CCSCc2csc(N=C(N)N)n2)nc1=O` [Example 17, 2-(2-[[[2-((diaminomethylene)amino)-4-t:hiazolyl]methyl]-thio]ethyl]-5-(3-diethylaminopropyl)-6-methyl-4(1H)-pyrimidone tri-hydrochloride], the “Acid Inhibition Shay(4hr.) (mg./kg.) (Dog)” value in the test with gastric acid secretion (dose 3mg (mg./kg.)) is listed as 83%(3mg).

Consider `CCc1c(C)[nH]c(CCSCc2csc(N=C(N)N)n2)nc1=O` [Example 27, 2-[2-[[[2-[(diaminomethylene)amino)-4-thiazolyl]methyl]thio]-ethyl]-5-ethyl-6-methyl-4(1H)-pyrimidone], for which the “Acid Inhibition Shay(4hr.) (mg./kg.) (Dog)” value with gastric acid secretion (dose 0.1mg (mg./kg.)) is given as 90%(0.1mg). Still for that read-out and setting: the value for `CCCc1c(C)[nH]c(CCSCc2csc(N=C(N)N)n2)nc1=O` [Example 28] was 60%(0.1mg); that for `C#CCc1c(C)[nH]c(CCSCc2csc(N=C(N)N)n2)nc1=O` [Example 29, 2-[2-[[[2-[(diaminomethylene)amino]-4-thiazolyl]methyl]thio]-ethyl]-6-methyl-5-(2-propinyl)-4(1H)-pyrimidone] was 95%(0.1mg).

Consider `CCCCc1c(C)[nH]c(CCSCc2csc(N=C(N)N)n2)nc1=O` [Example 30, 2-[2-[[[2-[(diaminomethylene)amino]-4-thiazolyl]methyl]thio]-ethyl]-5-n-butyl-6-methy-1-4(1H)-pyrimidone di-hydrochloride], for which, in the test with gastric acid secretion (dose 0.1mg (mg./kg.)), the “Acid Inhibition Shay(4hr.) (mg./kg.) (Dog)” value was 70%(0.1mg). In addition, the cytoprotective action entry in test [1] is recorded as “R=butyl*”. With `CCCCCc1c(C)[nH]c(CCSCc2csc(N=C(N)N)n2)nc1=O.Cl.Cl` [Example 31, 2-[2-[[[2-[(diaminomethylene)amino]-4-thiazolyl]methyl]thio]-ethyl]-6-methyl-5-n-pentyl-4(1H)-pyrimidone di-hydrochloride], the “Acid Inhibition Shay(4hr.) (mg./kg.) (Dog)” value in the test on gastric acid secretion (dose 0.1mg (mg./kg.)) is 95%(0.1mg). In addition, in test [1], the cytoprotective action result is given as “R=amyl*”. Consider `Cc1[nH]c(CCSCc2csc(N=C(N)N)n2)nc(=O)c1CCC(C)C` [Example 32, 2-[2-[[[2-[(diaminomethylene)amino]-4-thiazolyl]methyl]thio]-ethyl)-6-methyl-5-(3-methylbutyl)-4(lH)-pyrimidone di-hydrochloride], for which the cytoprotective action result in test [1] is reported as “R=iso-amyl*”.
